# Tests used:
# Test in all cases: relative viability (nuclei count vs DMSO), 5 days (fraction); higher = more cells survive
# [1] = compound: CCn1c(-c2nonc2N)nc2c(C#CC(C)(C)O)ncc(OC[C@H]3CCCNC3)c21 + CC(=O)c1c(C)c2cnc(Nc3ccc(N4CCNCC4)cn3)nc2n(C2CCCC2)c1=O [Palbociclib] (partner 0.5 µM)
# Summary of the method: (§1)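 Medians of duplicate plates are given as relative viability. That measure is the nuclei count in treated wells divided by the count in vehicle wells. Counts were taken on 4× images of lung cancer cell lines in 1536-well plates, 5 days after pin-tool dosing the day after seeding with one drug alone or a fixed anchor-drug dose plus five library-drug doses (not always all listed) in √10 steps.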
# [2] = compound: CCn1c(-c2nonc2N)nc2c(C#CC(C)(C)O)ncc(OC[C@H]3CCCNC3)c21 + NC(=O)Nc1cc(-c2cccc(F)c2)sc1C(=O)N[C@H]1CCCNC1 [AZD7762] (partner 0.2 µM)
# Summary of the method: as §1
# BAM7 + Alpelisib = compound: CCOC1=CC=CC=C1N=NC2=C(NN(C2=O)C3=NC(=CS3)C4=CC=CC=C4)C [BAM7] + Cc1nc(NC(=O)N2CCC[C@H]2C(N)=O)sc1-c1ccnc(C(C)(C)C(F)(F)F)c1 [Alpelisib] (partner 2 µM)
# Summary of the method: as §1
# [3] = compound: CCn1c(-c2nonc2N)nc2c(C#CC(C)(C)O)ncc(OC[C@H]3CCCNC3)c21 + CC(C)C[C@H](NC(=O)[C@H](Cc1ccccc1)NC(=O)c1cnccn1)B(O)O [Bortezomib] (partner 0.002 µM)
# Summary of the method: as §1
Cell Line,relative viability ([1]; first compound 0.01 µM),relative viability ([1]; first compound 0.03162 µM),relative viability ([1]; first compound 0.1 µM),relative viability ([1]; first compound 0.3162 µM),relative viability ([1]; first compound 1 µM),relative viability ([2]; first compound 0.01 µM),relative viability ([2]; first compound 0.03162 µM),relative viability ([2]; first compound 0.1 µM),relative viability ([2]; first compound 0.3162 µM),relative viability ([2]; first compound 1 µM),relative viability (BAM7 + Alpelisib; first compound 0.5 µM),relative viability (BAM7 + Alpelisib; first compound 5 µM),relative viability (BAM7 + Alpelisib; first compound 15.81 µM),relative viability (BAM7 + Alpelisib; first compound 50 µM),relative viability ([3]; first compound 0.01 µM),relative viability ([3]; first compound 0.03162 µM),relative viability ([3]; first compound 0.1 µM),relative viability ([3]; first compound 0.3162 µM),relative viability ([3]; first compound 1 µM)
NCI-H522,0.9,1.12,1.22,0.781,0.916,0.726,0.763,0.838,0.686,0.772,,,,,,,,,
HCC-15,0.76,0.71,0.716,0.614,0.683,1.2,1.26,1.17,1.13,1.37,0.907,0.923,0.883,0.853,0.988,1.06,1.01,0.925,0.952
A-427,0.426,0.508,0.533,0.515,0.559,0.701,0.767,0.747,0.696,0.777,0.687,1.16,1.11,1.06,0.975,0.991,1.08,1.01,1.01
NCI-H2228,0.686,0.752,0.821,0.574,0.467,,,,,,0.863,0.879,0.763,0.607,1.06,1.28,0.912,0.584,0.737
NCI-H1734,0.375,0.332,0.306,0.303,0.33,0.66,0.581,0.452,0.548,0.504,0.74,0.804,0.638,0.676,0.872,0.965,0.875,0.344,0.648
PC-14,0.581,0.543,0.542,0.476,0.516,0.31,0.285,0.356,0.31,0.342,0.983,0.841,0.915,0.906,0.966,0.84,0.956,0.813,0.852
NCI-H1915,0.488,0.545,0.531,0.487,0.537,0.699,0.698,0.672,0.648,0.607,1.08,1.11,1.03,1.05,0.982,1.01,0.904,0.975,0.921
NCI-H1666,0.615,0.647,0.645,0.626,0.636,0.806,0.827,0.839,0.804,0.876,1.04,0.892,0.9,0.984,0.688,0.678,0.869,0.762,0.841
HCC-366,0.378,0.419,0.396,0.359,0.344,0.332,0.239,0.287,0.273,0.241,0.403,0.318,0.324,0.322,0.989,1.05,0.913,1.01,1.12
SK-MES-1,0.306,0.298,0.299,0.318,0.308,,,,,,1.1,0.9,0.985,1.01,,,,,
SW 1573,0.334,0.402,0.326,0.241,0.215,,,,,,0.777,0.833,0.85,0.75,0.993,0.946,0.864,0.908,0.646
NCI-H661,0.446,0.399,0.39,0.389,0.372,,,,,,0.736,0.7,0.699,0.699,0.883,0.75,0.739,0.972,0.855
PC-3 [JPC-3],0.529,,0.556,0.557,0.531,0.724,,0.796,0.692,0.859,1.02,0.99,0.876,0.907,0.82,0.852,0.796,0.781,0.808
Calu-6,,,,,,,,,,,0.986,0.931,0.932,1.11,1.01,1.06,1.1,0.998,1.12
LC-2-ad,0.547,0.455,0.546,0.502,0.462,0.86,0.874,0.885,0.839,0.867,0.998,0.893,0.746,0.855,0.986,0.993,1.03,0.977,0.968
CAL-12T,0.39,0.448,0.468,0.462,0.553,0.556,0.651,0.567,0.624,0.708,1.21,1.19,1,1.39,0.939,0.852,1.08,1.16,1.1
RERF-LC-KJ,1.02,1.06,1.02,0.915,1.05,1,1.07,0.949,0.867,1.05,0.814,0.823,0.716,0.766,0.997,1.11,1.06,0.974,1.2
NCI-H1650,0.382,0.291,0.396,0.153,0.276,,,,,,,,,,0.214,0.195,0.223,0.185,0.202
BEN,0.481,0.475,0.432,0.463,0.474,0.629,0.696,0.562,0.686,0.696,1.11,0.948,0.903,1.08,0.713,0.803,0.661,0.73,0.696
EMC-BAC-2,0.497,0.506,0.504,0.5,0.471,1.11,1.04,1.08,0.94,1.17,0.801,0.778,0.713,0.772,1.02,1,0.996,1.06,1.07
LU99A,0.37,0.45,0.388,0.406,0.423,0.345,0.363,0.379,0.297,0.378,0.588,0.489,0.532,0.597,1.21,1.29,1.04,1.04,1.08
ABC-1,0.578,,0.678,0.735,0.555,0.705,,0.568,0.716,0.594,1.37,0.968,0.851,0.914,0.292,0.299,0.301,0.332,0.294
NCI-H2170,0.391,0.441,0.378,0.372,0.435,0.756,0.947,0.86,0.84,0.941,0.631,0.603,0.537,0.672,,,,,

Cell Line,relative viability ([1]; first compound 0.01 µM),relative viability ([1]; first compound 0.03162 µM),relative viability ([1]; first compound 0.1 µM),relative viability ([1]; first compound 0.3162 µM),relative viability ([1]; first compound 1 µM),relative viability ([2]; first compound 0.01 µM),relative viability ([2]; first compound 0.03162 µM),relative viability ([2]; first compound 0.1 µM),relative viability ([2]; first compound 0.3162 µM),relative viability ([2]; first compound 1 µM),relative viability (BAM7 + Alpelisib; first compound 0.5 µM),relative viability (BAM7 + Alpelisib; first compound 5 µM),relative viability (BAM7 + Alpelisib; first compound 15.81 µM),relative viability (BAM7 + Alpelisib; first compound 50 µM),relative viability ([3]; first compound 0.01 µM),relative viability ([3]; first compound 0.03162 µM),relative viability ([3]; first compound 0.1 µM),relative viability ([3]; first compound 0.3162 µM),relative viability ([3]; first compound 1 µM)
NCI-H1299,,,,,,,,,,,1.06,1.1,1.03,0.992,1.02,1.04,0.992,0.988,1
EBC-1,,,,,,,,,,,1.05,0.805,0.814,0.953,0.549,0.566,0.521,0.488,0.444
NCI-H2342,0.521,0.549,0.551,0.679,0.512,0.444,0.482,0.498,0.534,0.455,,,,,,,,,
ChaGo-K-1,0.915,0.918,0.939,0.893,0.84,0.87,0.885,0.868,0.836,0.758,,,,,0.972,0.795,1.01,0.99,0.954
COR-L23,0.22,0.288,0.226,0.231,0.226,,,,,,0.804,0.714,0.685,0.752,1.01,0.961,0.97,0.884,0.938
COR-L 105,0.401,0.37,0.419,0.39,0.42,,,,,,1.01,1.06,0.967,0.981,0.82,0.783,1,0.693,0.763
LK-2,0.641,0.714,0.556,0.625,0.887,0.457,0.446,0.291,0.339,0.303,1.14,1.78,1.16,0.874,,,,,
NCI-H596,,,,,,1.18,,1.12,1.21,1.06,0.461,0.463,0.425,0.492,1.02,0.956,0.969,1.38,0.999
NCI-H2023,0.357,0.379,0.331,0.205,0.262,,,,,,0.639,0.507,0.502,0.485,0.924,0.977,0.904,0.861,0.912
NCI-H1944,0.359,0.353,0.348,0.314,0.325,0.682,0.47,0.596,0.513,0.654,0.875,0.902,0.661,0.81,,,,,
NCI-H1793,0.295,0.326,,0.295,0.315,0.45,0.716,,0.412,0.411,0.752,0.892,0.541,0.675,,,,,
NCI-H520,0.185,0.2,0.164,0.153,0.165,,,,,,1.03,1.01,0.947,0.865,0.79,0.887,0.529,0.249,0.399
A549,,,,,,,,,,,0.872,0.722,0.846,0.845,,,,,
NCI-H358,0.139,0.147,0.122,0.151,0.131,0.478,0.386,0.684,0.518,0.512,0.953,0.837,0.859,0.85,,,,,
NCI-H1563,,,,,,,,,,,0.991,0.864,0.864,0.929,0.963,0.842,0.752,0.829,0.796
NCI-H1395,0.605,0.527,0.604,0.495,0.509,0.379,0.329,0.433,0.368,0.389,1.23,1.04,1.04,1.24,,,,,
NCI-H2009,0.202,0.223,0.229,0.186,0.241,,,,,,1.21,1.15,1.1,1.15,0.997,0.944,1.05,1.03,0.958
SW 900,0.558,0.557,0.483,0.649,0.444,0.656,0.659,0.712,0.575,0.56,,,,,,,,,
IA-LM,,,,,,,,,,,0.67,0.648,0.659,0.994,0.854,0.77,0.877,0.679,0.373
SK-LU-1,0.405,0.455,0.323,0.414,0.39,,,,,,0.703,1.1,0.955,1.09,1.08,1.08,0.707,0.992,1.22
NCI-H1703,,,,,,,0.123,,0.0983,0.113,0.316,0.322,0.291,0.36,0.327,0.391,0.339,0.201,0.209
NCI-H1648,0.266,0.272,0.235,0.262,0.317,0.601,0.728,0.615,0.686,0.673,,,,,,,,,
